Data on five molecules can be found in US20250223366A1, “MONOCLONAL ANTIBODIES AND BISPECIFIC ANTIBODY AGAINST C-MET” (BIOTHEUS INC., priority 2022, published 2025).

Broadly, the TGI is how far tumour growth fell short of that in controls.

For test [1], the system named is HepG2 cells. The test can be described thus: Blocking HGF-induced migration of HepG2 cells. The test is classed as cell-based, human. The settings on record: HGF in lower chamber, 3 days, FIG. 6. An excerpt:
HepG2 cells were human liver cancer cells and purchased from ATCC, which were capable of expressing EGFR and c-Met receptors. When HGF was placed in the lower chamber culture medium, it would induce HepG2 cells in the upper chamber to migrate to the lower chamber through the filter membrane. The specific experimental method was as follows: HepG2 cells were expanded to an appropriate density, the cells were digested and detached from the cell culture flask, resuspended to 1×10^6 cells/ml, and added to the upper chamber of the 24-well cell migration plate (purchased from Corning) at 100 μL per well for later use. The bispecific antibody was diluted to 200 nM with MEM, added to the upper chamber of the 24-well cell migration plate at 100 μL per well, and incubated at 25° C. for 60 min. h.HGF (purchased from R&D) was diluted to 50 ng/mL with MEM, added to the lower chamber of the cell migration plate at 500 μL/well, and cultured for 3 days at 37° C. and 5% carbon dioxide. The non-migrated cells on the upper chamber membrane were gently wiped with cotton swabs, the cells that migrated to the lower chamber membrane were lysed with Cell titer glo (purchased from Promega), and the chemiluminescent signal was collected with an microplate plate reader.

Test [2] deals with T1, EGFR which expressed on H292 cells (Homo sapiens, UniProt P00533).
T1 construct: H292 cells, which were human non-small cell lung cancer cells purchased from Procell, were capable of expressing EGFR and c-Met receptors; host or cells: H292 cells
Put plainly: Blocking EGF-EGFR interaction on H292 cells (flow cytometry, Biotin-h.EGF). It is filed as cell-based. The settings on record: negative controls, FIG. 3. As to the method: H292 cells, which were human non-small cell lung cancer cells purchased from Procell, were capable of expressing EGFR and c-Met receptors. H292 cells were expanded to a suitable density, digested and detached from the cell culture flask, resuspended to 1×10^6 cells/ml, added to a 96-well flow plate, 100 μL per well, and centrifuged for later use. The antibody to be tested was subjected to 3-fold dilution with PBS, starting from 200 nM, and the diluted sample was added to the 96-well flow plate with cells, 100 μL/well, and incubated at 25° C. for 60 min. Biotin-h.EGF was diluted to 100 nM with PBS, added to the 96-well flow plate with cells, 100 μL/well, and incubated at 25° C. for 60 min. then washed twice with PBS. Streptavidin-FITC (purchased from Jackson) was diluted 100 times with PBS and added to the plate, 100 µL/well, incubated at 4° C. for 30 min, and washed twice with PBS. 100 μL/well of PBS was added to resuspend the cells, then the cells were detected on a CytoFlex (Beckman) flow cytometer, and the corresponding MFI was calculated.

Test [3] deals with A375/H1975/HCC827 cells. The test can be described thus: ADCC induction, CD16a-NFAT-Luc Jurkat reporter gene cells. It is filed as cell-based, human. To be noted: A375, H1975, HCC827 target cells, CD16a-NFAT-Luc Jurkat effector cells, 6 h, FIG. 9. From the text: A375 cells were human malignant melanoma cells and purchased from Addexbio, which were capable of expressing EGFR and c-Met receptors. H1975 cells were human lung adenocarcinoma cells and purchased from Addexbio, which were capable of highly expressing EGFR and c-Met receptors. HCC827 cells were human non-small cell lung cancer cells and purchased from the Cell Bank of the Chinese Academy of Sciences, which were capable of highly expressing EGFR and c-Met receptors. […]

Test [4] relates to H1975-HGF human lung cancer cells. The test can be described thus: Experimental Model 5: H1975-HGF tumor-bearing model, combination with Osimertinib. It is filed as in vivo, CB-17 SCID mice. To be noted: antibody Day 16 and Day 18: 3 mg/kg, Osimertinib Days 16 to 22: 3 mg/kg/day, last measured 28 days after inoculation. From the text:
In this experiment, the in vivo efficacy of the bispecific antibody of the present application in combination with an small molecule EGFR inhibitor (e.g., Osimertinib) was detected. Using the lentiviral transfection method, the cDNA encoding human HGF (hepatocyte growth factor) (the sequence was from UniProtKB P14210) was constructed on the pLVX-neu vector by General Biol, and the plasmid was transfected into H1975 cells to construct a cell line ([…]) with stable expression of HGF. In this experiment, CB-17 SCID mice were subcutaneously inoculated with H1975-HGF human lung cancer cells to establish a tumor-bearing model and determine the anti-tumor effect of the anti-EGFRxc-Met bispecific antibody. The model construction process was the same as that of Experimental Model 2. The mice were divided into groups according to the grouping and dosing scheme in Table 10 and the corresponding doses of antibodies were injected.
The tumor volume and body weight of mice were measured 2 to 3 times a week. The body weight and tumor volume of mice were measured for the last time 28 days after the tumor cell inoculation, and then the mice were euthanized.

The test system of test [5] is H292 human lung cancer tumor cells. Put plainly: Experimental Model 4: H292 tumor-bearing model, comparison with Rybrevant. It is filed as in vivo, CB-17 SCID mice. The settings on record: H292, single dose Day 14: 10 mg/kg; last measured 27 days after inoculation. An excerpt:
In this experiment, CB-17 SCID mice were subcutaneously inoculated with H292 human lung cancer tumor cells to establish a tumor-bearing model, and the anti-EGFRxc-Met bispecific antibody was compared with the commercially available EGFRxc-Met bispecific antibody Rybrevant (purchased from Johnson & Johnson, batch number: LHS3G02) (this antibody had been published at various oncology conferences and was also known as JNJ-6372) in terms of anti-tumor effect. The mouse model establishment process was the same as that of Experimental Model 1. The groups were divided according to the grouping and dosing scheme in Table 9 and the corresponding doses of antibodies were injected.
The tumor volume and body weight of the mice were measured 2 to 3 times a week. The weight and tumor volume of the mice were measured for the last time 27 days after the inoculation of tumor cells, and the mice were euthanized.

As to “anti-EGFR single-arm antibody: anti-EGFR single-arm antibody prepared based on the control antibody Amivantamab; heavy chain SEQ ID NO: 42, light chain SEQ ID NO: 4 [reference compound]”, the “blocking of HGF-induced migration of HepG2 cells” value in test [1] is reported as “could not block”. Regarding “anti-MET single-arm antibody: anti-c-Met single-arm molecule constructed based on the control molecule Amivantamab; heavy chain SEQ ID NO: 43, light chain SEQ ID NO: 8 [reference compound]”, the “blocking interaction between EGF and EGFR” value in test [2] was “could not block”. “Amivantamab analog: control anti-EGFRxcMet bispecific antibody with anti-cMet arm of WO2011/110642A2, obtained in normal host cells [reference compound]”: the ADCC effect result in test [3] is “induced ADCC effects”. Regarding “Rybrevant: commercially available EGFRxc-Met bispecific antibody, purchased from Johnson & Johnson, batch number LHS3G02 [reference compound]”, the TGI in test [4] is on record as 44.1%; in test [5], 67.9%.

Consider `C=CC(=O)Nc1cc(Nc2nccc(-c3cn(C)c4ccccc34)n2)c(OC)cc1N(C)CCN(C)C` [Osimertinib], for which the TGI in test [4] was determined as 38.9%.
